Where two headings read alike, the source gives them in different places. No end group written: not given here.
Legend:
[1] = test system: C. albicans; test: Ergosterol binding assay (MIC in presence and absence of ergosterol); assay type: cell-based, Candida albicans
Method: An ergosterol binding assay was performed to measure the binding potency of peptides to fungal membrane sterols. For this purpose, the ergosterol was dissolved in DMSO and Tween-20, it was heated to increase the solubility of the formed emulsion and diluted in an SDB medium at a concentration of […] and incubated at 37 °C for 1 h. After that, MIC of the AurH1, Ac-AurH1, and AurH1-NH2 peptides was measured by the micro-dilution method in the presence and absence of ergosterol in different concentrations ([…]) against C. albicans.

[2] = test system: C. krusei; assay type: cell-based, Candida krusei
Method: (§1) The microbial inoculum was prepared based on broth micro-dilution assay to generate a concentration of fungi corresponding to 5 × 10^5 CFU/mL. […] The obtained results were analyzed in terms of the fractional inhibitory concentration index (FIC): [drawing 4] AMPs and antibiotics are antagonistic if FIC ≥ 4.0, indifference if > 1 FIC < 4.0, additive if > 0.5 FIC ≤ 1, and synergism if FIC ≤ 0.5.

[3] = test system: Human skin fibroblast (Hu02 cells); assay type: cell-based
Method: Toxicity of peptides on Human skin fibroblast (Hu02 cells) and two human breast cancer cell lines (MDA-MB-231 and SKBR3 cell lines) measured by an MTT assay. At first, cell lines with a density of 1 × 10^5 cells were cultured in the wells of 96-well plates for 24 h under standard conditions (37 °C temperature, 5% CO2 atmosphere with 95% relative humidity). After that, the old medium was replaced with fresh medium (with 10% FBS) containing different peptide concentrations, and the cells were incubated for 24 h. A medium without peptide was used as a negative control. After 24 h of incubation and washing the wells with PBS, the medium (containing 10% FBS) was replaced with fresh medium containing 10% MTT solution (freshly prepared 5 mg/ml MTT in PBS), and the plate was incubated for four h in 5% CO2, at 37 °C. Next, the medium was removed from the wells, and 100 µL DMSO was added. Afterward, the plate was shaken to dissolve Formazan crystals. Finally, by a microplate reader (STAT FAX 2100, BioTek, Winooski, USA), the absorbance values were measured at a wavelength of 595 nm. The percentage of toxicity was calculated as follows: […]

[4] = test system: C. albicans; test: FE-SEM of C. albicans surface after peptide treatment; assay type: cell-based, Candida albicans; conditions: 0.5 X MIC
Method: At first, C. albicans were cultured in broth media. Next, yeasts were deposited by centrifugation (4000 rpm for 1 min) and washed (Three times) with PBS (pH 7.4). […] The samples were centrifuged at 4000 rpm for 1 min, washed three times in PBS, and put on the glass slides (1cm2). Subsequently, cells were dehydrated with ethanol gradient (at 10, 30, 60, 70, and 90%). After that, the dehydrated cells were dissolved in 100% ethanol for 15 min and dried at room temperature (25 °C). Finally, C. albicans cells were coated with gold nanoparticles by an automatic sputter coater and observed using an FE-SEM instrument (JSM-7610 F, JEOL Co., Japan and MIRA3, TESCAN Co., Czech).

[5] = test system: C. glabrata; assay type: cell-based, Candida glabrata
Method: as §1

[6] = test system: C. albicans; test: Effect of salts and human serum on antimicrobial activity (MIC); assay type: cell-based, Candida albicans
Method: To evaluate the effect of salts and human serum on the antimicrobial activity of the AurH1-NH2 and AurH1 peptides, their antimicrobial activity (MICs values) against C. albicans under different conditions containing salt and human serum was determined. Therefore, mid-logarithmic phase yeasts diluted to 5 × 10^5 CFU/ml in SDB were added to related media containing different concentrations of human serum (10%, 20%, and 30%) and salts (150 mM NaCl and 1mM MgCl2), and incubated at 37 °C for 24 h.

[7] = test system: C. albicans; assay type: cell-based, Candida albicans
Method: as §1

[8] = test system: human red blood cells; assay type: cell-based; conditions: 1 h
Method: A hemolytic assay was performed to investigate the effects of peptides on human red blood cells. First, 5 ml of fresh human blood was taken from a volunteer. After that, 20% (v/v) suspension of human erythrocytes was prepared and diluted in PBS (1:20). Next, 100 µL of this blood suspension was added in triplicate to 100 µL of a 2-fold serial dilution series of the peptide in a 96‐well plate. 1% Triton-X 100 was used as a positive control to lyse 100% of RBCs, and sterile 0.9% NaCl solution was used as a negative control. Then the plates were incubated at 37 °C for 1 h and centrifuged at 3500 rpm for 10 min. Next, 100 µL of the supernatant was transferred to a new 96-well plate to measure the absorbance at 414 nm using a microplate reader (STAT FAX 2100, BioTek, Winooski, USA). Finally, the percentage of hemolysis was calculated as follows: […]

[9] = test system: Candida glabrata (ATCC 90,030); test: microbe, parasite or virus in culture; assay type: cell-based; conditions: ATCC 90, 24 h
Method: (§2) The human skin fibroblast (Hu02 cell) and human breast cancer cells (MDA-MB-231 and SKBR-3 cell lines) were purchased from the National Cell Bank of Iran, Pasture Institute of Ira) for cytotoxicity test. Antimicrobial effects of the Ac-AurH1, AurH1-NH2, and AurH1 against the selected bacteria and fungi were conducted using a standard serial dilution method in a 96-well microplate. For this purpose, the desired fungal and bacterial strains were grown overnight at 37 °C (Some of the fungi were incubated at 25 °C) in related media (SDA for fungi and MHA for bacteria). […] Next, serially diluted synthetic peptides in a volume of 100 μL were added to the microtitre plates, followed by 100 μL of bacteria and fungi to give a final inoculum of 5 × 10^5 colony-forming units (CFU)/ml (a 0.5 McFarland standard inoculum). […] In this test, penicillin and streptomycin antibiotics for bacteria and fluconazole, nystatin, and amphotericin B for fungal strains were used as antibiotic control. […] All tests were repeated three times independently.

[10] = test system: Aspergillus niger (ATCC 9142); test: microbe, parasite or virus in culture; assay type: cell-based; conditions: ATCC 9142, 24 h
Method: as §2

[11] = test system: Escherichia coli (ATCC 25,922); test: microbe, parasite or virus in culture; assay type: cell-based; conditions: ATCC 25, 24 h
Method: as §2

[12] = test system: Candida albicans (ATCC 10,231); test: microbe, parasite or virus in culture; assay type: cell-based; conditions: ATCC 10, 24 h
Method: as §2

[13] = test system: Aspergillus flavus (ATCC 24,109); test: microbe, parasite or virus in culture; assay type: cell-based; conditions: ATCC 24, 24 h
Method: as §2

[14] = test system: Candida krusei (ATCC 28,870); test: microbe, parasite or virus in culture; assay type: cell-based; conditions: ATCC 28, 24 h
Method: as §2

[15] = test system: Staphylococcus aureus (ATCC 25,923); test: microbe, parasite or virus in culture; assay type: cell-based; conditions: ATCC 25, 24 h
Method: as §2

[16] = test system: C. albicans; test: Killing kinetic assay (time of killing); assay type: cell-based, Candida albicans; conditions: 1X MIC concentration
[17] = test system: Aspergillus niger (ATCC 9142); set-up: method as in our previous study [6]; conditions: A. niger; ref our previous study [6]; cited from earlier work
[18] = test system: Candida krusei (ATCC 28,870); set-up: method as in our previous study [6]; conditions: C. krusei; ref our previous study [6]; cited from earlier work
[19] = test system: Escherichia coli (ATCC 25,922); set-up: method as in our previous study [6]; conditions: E. coli; ref our previous study [6]; cited from earlier work
[20] = test system: Aspergillus flavus (ATCC 24,109); set-up: method as in our previous study [6]; conditions: A. flavus; ref our previous study [6]; cited from earlier work
[21] = test system: Candida albicans (ATCC 10,231); set-up: method as in our previous study [6]; conditions: C. albicans; ref our previous study [6]; cited from earlier work
[22] = test system: C. albicans; set-up: method as in PMID 31264322; conditions: cited from earlier work
[23] = test system: Candida glabrata (ATCC 90,030); set-up: method as in our previous study [6]; conditions: C. glabrata; ref our previous study [6]; cited from earlier work
[24] = test system: Staphylococcus aureus (ATCC 25,923); set-up: method as in our previous study [6]; conditions: S. aureus; ref our previous study [6]; cited from earlier work
[25] = after treatment with Ergosterol (Erg)
[26] = before treatment with Ergosterol (substance alone)
[27] = in combination with amphotericin B (Amph)
[28] = in combination with fluconazole (Flu)
[29] = in combination with nystatin (Nys)

In the case of H-WFKIIKK-NH2 [AurH1-NH2, WFKIIKK-NH2], the MIC [1, 25] is reported as 7.81 µg/mL, the MIC [1, 26] is reported as 7.81 µg/mL and the Interpretation [2, 27] is reported as “Synergy (synergism if FIC ≤ 0.5)”. For the same substance, the Interpretation [2, 28] was “Indifference (indifference if > 1 FIC < 4.0)”, the Interpretation [2, 29] was “Antagonist (antagonistic if FIC ≥ 4.0)” and the toxicity [3] was “no significant toxicity”. For the same substance, the “surface morphology change (FE-SEM)” value ([4]; after 2 h) was “shrinkages in cell-surface”, the “surface morphology change (FE-SEM)” value ([4]; after 4 h) was “increase was seen in the amount of cell surface shrinkage and cell roughening” and the “surface morphology change (FE-SEM)” value ([4]; after 6 h) was “blisters and surface pores on the cell surface were created”. For the same substance, the Interpretation [5, 27] was “Synergy (synergism if FIC ≤ 0.5)”, the Interpretation [5, 28] was “Indifference (indifference if > 1 FIC < 4.0)” and the Interpretation [5, 29] was “Antagonist (antagonistic if FIC ≥ 4.0)”. The MIC ([6]; SDB) was 7.81 µg/mL, the MIC ([6]; SDB + 10% serum (human)) was 7.81 µg/mL and the MIC ([6]; SDB + 20% serum (human)) was 7.81 µg/mL. It also gave an MIC ([6]; SDB + 30% serum (human)) of 15.6 µg/mL, an MIC ([6]; SDB + MgCl2 (1 mM)) of 7.81 µg/mL and an MIC ([6]; SDB + NaCl (150 mM)) of 7.81 µg/mL. The Interpretation [7, 27] was “Synergy (synergism if FIC ≤ 0.5)”, the Interpretation [7, 28] was “Indifference (indifference if > 1 FIC < 4.0)” and the Interpretation [7, 29] was “Indifference (indifference if > 1 FIC < 4.0)”. For the same substance, the “HC50 (concentration that lyses 50% of red blood cells)” value [8] was 14,246 µg/ml, the MBC (MFC) [9] was 62.5 µg/mL and the MIC [9] was 62.5 µg/mL. The “MBC (MFC)” value [10] was 500 µg/mL, the MIC [10] was 125 µg/mL and the MIC [11] was greater than 1000 µg/mL. The “MBC (MFC)” value [12] was 62.50 µg/mL, the MIC [12] was 7.81 µg/mL and the “MBC (MFC)” value [13] was 1000 µg/mL. For the same substance, the MIC [13] was 250 µg/mL, the “MBC (MFC)” value [14] was 31.25 µg/mL and the MIC [14] was 7.81 µg/mL. The MIC [15] was greater than 1000 µg/mL and the “time to kill all C. albicans (maximum fungicidal effect)” value [16] was 12 h.

For WFKIIKK [AurH1, WFKIIKK], the “MBC (MFC)” value [17] is listed as 500 µg/mL, the MIC [17] is listed as 125 µg/mL and the MIC [1, 25] is listed as 15.6 µg/mL. For the same substance, the MIC [1, 26] was 15.6 µg/mL, the “MBC (MFC)” value [18] was 250 µg/mL and the MIC [18] was 31.25 µg/mL. The MIC [19] was greater than 1000 µg/mL, the MIC ([6]; SDB) was 15.6 µg/mL and the MIC ([6]; SDB + 10% serum (human)) was 15.6 µg/mL. It also gave an MIC ([6]; SDB + 20% serum (human)) of 62.5 µg/mL, an MIC ([6]; SDB + 30% serum (human)) of 125 µg/mL and an MIC ([6]; SDB + MgCl2 (1 mM)) of 15.6 µg/mL. For the same substance, the MIC ([6]; SDB + NaCl (150 mM)) was 15.6 µg/mL, the MIC [20] was greater than 1000 µg/mL and the “MBC (MFC)” value [21] was 125 µg/mL. The MIC [21] was 15.625 µg/mL, the “HC50 (concentration that lyses 50% of red blood cells)” value [8] was 13,484 µg/ml and the “time to kill all C. albicans (maximum fungicidal effect)” value [16] was 24 h. The “combinatorial effect (in words)” value ([22]; in combination with amphotericin B) was “synergistic effects”, the “combinatorial effect (in words)” value ([22]; in combination with fluconazole) was “synergistic effects” and the “MBC (MFC)” value [23] was 500 µg/mL. For the same substance, the MIC [23] was 125 µg/mL and the MIC [24] was greater than 1000 µg/mL.
